# Experimental data as given in US20160220738A1, “PROGESTERONE-CONTAINING COMPOSITIONS AND DEVICES” (priority 2007, published 2016).
# “Also recorded” adds a separate entry of the source.
# Columns and labels:
# [1] = test system: primary astrocyte cultures; test: Glucose transport inhibition in astrocytes (Example 13); assay type: cell-based, rat; settings: 24 hours exposure
# [2] = test system: human aortic smooth muscle cells; test: Human aortic smooth muscle cell proliferation (Example 10); assay type: cell-based; settings: HASMC, progesterone 10 μg/ml; for smooth muscle cell proliferation (in words): up to 8 days
# Protocol: For cell cultures grown longer than 3 days, culture medium was changed twice weekly, according to standard protocols in the art, and included antibiotics and other standard additives as appropriate.
# (§1) Cell cultures were maintained at 37° C. in an atmosphere containing 5% carbon dioxide. Appropriate precautions were taken to prevent accelerated breakdown, including protection of the cell cultures from light.
# At each timepoint, triplicate samples were analyzed via growth measurements. The rate of cell proliferation was assayed by counting the number of cells across the 8 day growth period. Absolute cell density was measured with a Coulter Counter. Cell viability was determined by trypan blue staining.
# [3] = test system: human coronary smooth muscle cell (HCSMC); test: Human coronary smooth muscle cell proliferation (Example 14); assay type: cell-based; settings: for difference in growth of progesterone treated SMC versus control: 30 μg/ml; for Average Number of Cells/dish / SMC proliferation (in words): HCSMC, progesterone 30 μg/ml; for SMC proliferation (in words): days 1, 3, 5
# Protocol: In addition, cells will be grown for 5 and 7 days. For cell cultures grown longer than 3 days, culture medium is changed twice weekly, according to standard protocols in the art, and includes antibiotics and other standard additives as appropriate.
# as §1
# Cultured human coronary endothelial and smooth muscle cells were obtained from commercial services. […] Dilutions were prepared using ethanol such that the total quantity of ethanolic drug volume added to any experimental culture was 10 μL. For proliferation and apoptosis studies, EC or SMC was seeded in multiple culture wells at a density of 5,000 cells/cm^2. […] Cell counts were conducted at days 1, 3, and 5 and will be conducted at day 7, using a Coulter counter. From these counts, the influence of the drug concentration on cell growth rate was calculated.
# Sampling and analysis of SMC is performed as follows. At each time point, triplicate samples are analyzed for growth measurements. The rate of cell proliferation is assayed by counting the number of cells across the 8 day growth period. Absolute cell density is measured with a Coulter Counter. Cell viability is determined by a live-dead cell apoptosis assay (Molecular Probes, Inc.).
# [4] = test system: human coronary endothelial cells (HCEC); test: Human coronary endothelial cell growth (Example 14); assay type: cell-based
# Protocol: In addition, cells will be grown for 5 and 7 days. For cell cultures grown longer than 3 days, culture medium is changed twice weekly, according to standard protocols in the art, and includes antibiotics and other standard additives as appropriate. […] Addition of the progesterone-treated or control (untreated) medium to the cells was counted as day 0. […] Cell cultures were maintained at 37° C. in an atmosphere containing 5% carbon dioxide. Appropriate precautions were taken to prevent accelerated breakdown, including protection of the cell cultures from light. Cultured human coronary endothelial and smooth muscle cells were obtained from commercial services. […] Dilutions were prepared using ethanol such that the total quantity of ethanolic drug volume added to any experimental culture was 10 μL. For proliferation and apoptosis studies, EC or SMC was seeded in multiple culture wells at a density of 5,000 cells/cm^2. […] Cell counts were conducted at days 1, 3, and 5 and will be conducted at day 7, using a Coulter counter. From these counts, the influence of the drug concentration on cell growth rate was calculated. Sampling and analysis of endothelial cells is performed as follows. At each time point, triplicate samples are analyzed for growth measurements. The rate of cell proliferation is assayed by counting the number of cells across the 8 day growth period. Absolute cell density is measured with a Coulter Counter. Cell viability is determined by a live-dead cell apoptosis assay (Molecular Probes, Inc.).
# [5] = test system: human infragenicular VSMCs; test: Human infragenicular VSMC proliferation under high glucose and insulin (Example 12); assay type: cell-based; settings: progesterone 10 ng/mL, glucose 100/200 mg/dL, insulin 0/100 ng/mL, day 6
# Protocol: Methods are according to 2002 J Vasc Surg 36, 833-838, except as otherwise noted.
# Human infragenicular VSMCs are isolated from the tibial arteries of male patients with diabetes undergoing lower extremity amputation. Immunocytochemical studies with confocal microscopy are performed for progesterone receptor identification in these VSMCs. Cells are grown to subconfluence, followed by exposure to deprived media with various glucose (100 and 200 mg/dL) and insulin (no insulin and 100 ng/mL) concentrations. […] Cell count and methyl-3H-thymidine incorporation are used to determine cellular proliferation. Cell count with hemocytometry is performed on day 6. DNA synthesis as reflected through methyl-3H-thymidine incorporation is measured at 24 hours.
# V189 (VEGF189) = settings: perivascular decidual endometrial cells, mid-late secretory phase and early gestation; cited from earlier work
# [6] = test system: platelet suspensions or whole blood; settings: in vitro; cited from earlier work
# ECs = settings: cited from earlier work
# vascular SMCs = settings: cited from earlier work
# [7] = test system: human aortic endothelial cells (HAEC) or U937 monocytic cells; settings: d-alpha-tocopherol 20, 40, 60 micromol/l for 20 h, IL-1beta stimulated; cited from earlier work
# HAEC = settings: cited from earlier work
smiles,measurement,setting,value
C[C@]12CCC(=O)C=C1CC[C@@H]1[C@@H]2[C@@H](O)C[C@@]2(C)[C@H]1CC[C@]2(O)C(=O)CO [cortisol],concentration inhibiting glucose transport,[1],1 µM
"CC(=O)[C@H]1CC[C@H]2[C@@H]3CCC4=CC(=O)CC[C@]4(C)[C@H]3CC[C@]12C [Progesterone, pregn-4-ene-3,20-dione]",Average number of cells per dish,[2]; day 1,7902 cells per dish
same,Average number of cells per dish,[2]; day 3,14871 cells per dish
same,Average number of cells per dish,[2]; day 6,17618 cells per dish
same,Average number of cells per dish,[2]; day 8,20018 cells per dish
same,smooth muscle cell proliferation (in words),[2],decrease SMC's compared to control in a dose response fashion
same,smooth muscle cell proliferation (in words),[2]; listed as progesterone,inhibited smooth muscle cell proliferation
same,difference in growth of progesterone treated SMC versus control,"[3]; day 1, inhibition",12.1%
same,difference in growth of progesterone treated SMC versus control,"[3]; day 3, inhibition",20.8%
same,difference in growth of progesterone treated SMC versus control,"[3]; day 5, inhibition",53.7%
same,Average Number of Cells/dish,[3]; day 1,7092 Cells/dish
same,Average Number of Cells/dish,[3]; day 3,9492 Cells/dish
same,Average Number of Cells/dish,[3]; day 5,10844 Cells/dish
same,SMC proliferation (in words),[3],decrease SMC's compared to control in a dose response fashion
same,SMC proliferation (in words),[3]; listed as progesterone,showed inhibition of SMC on the first day of treatment; also recorded: inhibits SMC proliferation
same,increase in growth of the progesterone treated EC versus control,"[4]; 30 μg/ml, day 1",5.3%
same,difference in growth of progesterone treated EC versus control,"[4]; 30 μg/ml, day 3, increase",27.5%
same,difference in growth of progesterone treated EC versus control,"[4]; 30 μg/ml, day 5, increase",29.3%
same,Average Number of Cells/dish,"[4]; HCEC, progesterone 30 μg/ml, day 1",6207 Cells/dish
same,Average Number of Cells/dish,"[4]; HCEC, progesterone 30 μg/ml, day 3",7227 Cells/dish
same,Average Number of Cells/dish,"[4]; HCEC, progesterone 30 μg/ml, day 5",8658 Cells/dish
same,endothelial cell growth (in words),"[4]; HCEC, progesterone 30 μg/ml, days 1, 3, 5",promoted growth of the EC both on the first and third days; also recorded: enhanced endothelial cell growth; also recorded: increases endothelial cells
same,cellular proliferation by cell count,[5],significantly inhibited cellular proliferation
same,V189 expression,V189 (VEGF189),selectively increases
CCCCC/C=C\C=C\CCCCCCCCC(=O)O [C18:2t10c12],platelet aggregation,[6],inhibit platelet aggregation
same,EC production of PAF,ECs,inhibit EC production of PAF
same,secretion of eicosanoids (PGI2 and PGE2),vascular SMCs,attenuate secretion of eicosanoids
"Cc1c(C)c2c(c(C)c1O)CC[C@@](C)(CCC[C@H](C)CCC[C@H](C)CCCC(C)C)O2 [vitamin E, d-alpha-tocopherol]",adhesion of HAEC and U937 monocytic cells,[7],inhibited their adhesion
same,IL-1beta-induced productions of MCP-1 and IL-8,"HAEC; 20, 40, 60 micromol/l",dose-dependently suppressed
same,"IL-1beta-stimulated expression of ICAM-1, VCAM-1 and E-selectin","HAEC; 20, 40, 60 micromol/l",suppressed
same,IL-8 production,HAEC; 60 micromol/l,reduced IL-8 production significantly
same,IL-1beta-induced production of IL-6,HAEC; at the doses used,dose-dependently inhibited
same,spontaneous production of IL-6,HAEC; at the doses used,did not significantly change
same,spontaneous production of MCP-1,HAEC; up to 60 micromol/l,not effective
"CCCCCC/C=C/C=C\CCCCCCCC(=O)O [C18:2c9t11, rumenic acid]",platelet aggregation,[6],inhibit platelet aggregation
same,EC production of PAF,ECs,inhibit EC production of PAF
same,secretion of eicosanoids (PGI2 and PGE2),vascular SMCs,attenuate secretion of eicosanoids
CCCCCC/C=C/C=C/CCCCCCCC(=O)O [C18:2t9t11],platelet aggregation,[6],inhibit platelet aggregation
